In patent US20100047246A1, “Methods and Compositions for Treating Vascular Disease” (The General Hospital Corporation, priority 2006, published 2010):

How the values were obtained:
[1] = system: Tg(flk1:GFP) embryos; assay: lycat morpholino and mRNA injections, cloche phenotype and GFP scoring in transgenic embryos; type: in vivo, zebrafish; details: for flk1:GFP signals in vessels: 24 hpf; for flk1:GFP signals in vessels / gata1:GFP signal in the blood islands: a345 control, lycat RNA 300 ng/ul; for flk1:GFP signals in vessels / gata1:GFP signal in the blood islands / Wild-type (phenotype), number of embryos / clo (phenotype), number of embryos: d522 0.3 mM; for gata1:GFP signal in the blood islands: gata1:GFP embryos; for Wild-type (phenotype), number of embryos / clo (phenotype), number of embryos: injected into 1- to 2-cell stage Tg(flk1:GFP) embryos, scored at 36 hpf and 48 hpf, a345 0.5 mM, Lycat RNA 0.3 μg/μl
Experimental: The cloche alleles, clo^m39 and clo^m378 have been previously described (Stainier et al., Development 121:3141, 1995; Stainier et al., Development 123:285, 1996). A new ENU-induced allele, clo^fv087b was also used. Genetic mapping of cloche was carried out using hybrid F1 (Clo^m39×TL, clo^m378×TL, clo^fv087b×WIK). Transgenic lines Tg(flk1:GFP) and Tg(gata1:GFP) (Long et al., Proc. Natl. Acad. Sci. U.S.A. 94:6267, 1997; Cross et al., ArterioScler. Thromb. Vasc. Biol. 23:911, 2003), were crossed with heterozygous clo^fv087b fish to generate transgenic clo^fv087b individuals. Examining cloche phenotypes and the GFP expression of embryos from sibling crossings identified heterozygous clo^fv087b/+ fish with the Tg(flk1:GFP) or Tg(gata1:GFP).
(§1) Four morpholinos were synthesized: three anti-sense morpholinos targeting the zebrafish lycat ATG site (atg): […] (SEQ ID NO:5); the second splicing donor site (d322): […] (SEQ ID NO:6); the third splicing donor site (d522): […] (SEQ ID NO:7); and a control morpholino (a345): […] (SEQ ID NO:8) (Gene Tools, LLC). Zebrafish lycat and mouse lycat were cloned into the pCS2 vector, and capped mRNA was synthesized using mRNA in vitro transcription kits (Ambion Inc., Austin, Tex.). Morpholinos and mRNA were injected into one- or two-cell stage wild-type, clo^fv087b; Tg(flk1:GFP) or clo^fv087b; Tg(gata1:GFP) embryos. Injected embryos were incubated at 28.5° C. for examination of phenotypes or were fixed for in situ hybridization. The bright-field pictures were taken using a Zeiss M12 dissecting microscope, and the fluorescence pictures were taken with a Zeiss Stemi SVII Apo fluorescence microscope.

[2] = system: scl expression in the ICM; assay: scl RNA in situ hybridization in injected embryos; type: in vivo, zebrafish; details: d522 0.3 mM, 0.4 mM, 0.5 mM, 20 hpf, RNA in situ analysis
Text: FIG. 3. Antisense lycat morpholinos mimic the cloche mutant phenotype and lycat mRNA rescues morpholino mediated knockdown.
as §1
In situ hybridization and antibody staining were done in the presence of blocking solution (Roche, Basil, Switzerland), in the RNA hybridization solution, and antibody staining solution (Schulte-Merker, Looking at embryos, 2002). […]

Substance	flk1:GFP signals in vessels [1]	gata1:GFP signal in the blood islands [1]	Wild-type (phenotype), number of embryos [1]	clo (phenotype), number of embryos [1]	injected embryos showing a clear cloche phenotype (lack blood cells, vascular endothelium, endocardium) ([1]; 0.3 mM d522, 5 nl, Tg(flk1:GFP) embryos, 36 hpf and 48 hpf, 132 out of 150) [%]	scl expression in the ICM [2]	scl expression in the ICM ([2]; listed as lycat morpholino)
a345: control morpholino: GCAGCGGGCACTGCTGGTGGAAGT (SEQ ID NO:8) (all phosphorodiamidate morpholino (PMO)) [reference compound]	strong flk1:GFP signals	strong gata1:GFP signal	65	0			
d522: anti-sense morpholino targeting zebrafish lycat third splicing donor site: CTGAACACACACACTGACCGAAGC (SEQ ID NO:7) (all phosphorodiamidate morpholino (PMO))	very little flk1:GFP signals	very little gata1:GFP signal	18	132	88	decreased scl	reduces expression of Scl in the intermediate cell mass (ICM) in a dose-dependent manner
